Source: patent US20240189438A1, “DRUG CONJUGATE OF GLUCOCORTICOID RECEPTOR AGONIST, AND APPLICATION THEREOF IN MEDICINE” (Shanghai Senhui Medicine Co., Ltd., priority 2021, published 2024)
Values belong to the compound of their own block, whether it stands above or below them.

Experiments:
human recombinant GR = target: T1, human recombinant GR (Homo sapiens, UniProt P04150); experiment: human glucocorticoid NHR (radiolabeled agonist) binding assay; conditions: competition with 5 nM [3H]dexamethasone, 4° C., 24 h
T1 sequence (P04150 1-777): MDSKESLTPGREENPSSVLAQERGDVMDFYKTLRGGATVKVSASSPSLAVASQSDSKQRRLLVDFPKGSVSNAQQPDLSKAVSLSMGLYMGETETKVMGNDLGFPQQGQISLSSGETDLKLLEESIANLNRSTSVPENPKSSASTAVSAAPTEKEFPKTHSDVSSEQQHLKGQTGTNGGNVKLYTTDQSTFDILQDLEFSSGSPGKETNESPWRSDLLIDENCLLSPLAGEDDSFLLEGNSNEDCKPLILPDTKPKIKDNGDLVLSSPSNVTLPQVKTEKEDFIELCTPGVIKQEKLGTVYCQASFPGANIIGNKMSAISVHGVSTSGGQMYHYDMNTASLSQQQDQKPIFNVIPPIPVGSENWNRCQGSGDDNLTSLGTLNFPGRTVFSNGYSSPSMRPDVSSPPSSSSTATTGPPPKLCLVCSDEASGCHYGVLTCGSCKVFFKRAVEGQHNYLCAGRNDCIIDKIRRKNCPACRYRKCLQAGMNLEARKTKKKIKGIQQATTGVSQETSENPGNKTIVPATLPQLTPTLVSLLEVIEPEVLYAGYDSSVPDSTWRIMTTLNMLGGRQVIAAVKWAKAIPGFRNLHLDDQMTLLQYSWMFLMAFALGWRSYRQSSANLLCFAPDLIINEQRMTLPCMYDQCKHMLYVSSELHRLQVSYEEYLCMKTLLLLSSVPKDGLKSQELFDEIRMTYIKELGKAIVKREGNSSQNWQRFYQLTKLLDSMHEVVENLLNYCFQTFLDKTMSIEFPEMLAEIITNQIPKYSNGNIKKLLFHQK
Experimental: 2. Glucocorticoid Receptor Binding Assay
The assays were based on the following principle: Different concentrations of a small-molecule steroid and 5 nM [3H]dexamethasone are incubated with human recombinant GR at 4° C. for 24 h. The small-molecule steroid competes with [3H]dexamethasone for binding to human GR. The binding activity of the small-molecule steroid for GR can be calculated by counting the number of [3H]dexamethasone molecules that bind specifically to the receptor.

[1] = target: T2, mineralocorticoid receptor (MR) (Homo sapiens, UniProt P08235); experiment: Mineralocorticoid receptor agonist activity, PathHunter NHR nuclear translocation assay; type: cell-based; conditions: PathHunter NHR CHO-K1 cells
T2 construct: expressed in transfected cells; host or cells: PathHunter NHR CHO-K1 cells
T2 sequence (P08235 1-984): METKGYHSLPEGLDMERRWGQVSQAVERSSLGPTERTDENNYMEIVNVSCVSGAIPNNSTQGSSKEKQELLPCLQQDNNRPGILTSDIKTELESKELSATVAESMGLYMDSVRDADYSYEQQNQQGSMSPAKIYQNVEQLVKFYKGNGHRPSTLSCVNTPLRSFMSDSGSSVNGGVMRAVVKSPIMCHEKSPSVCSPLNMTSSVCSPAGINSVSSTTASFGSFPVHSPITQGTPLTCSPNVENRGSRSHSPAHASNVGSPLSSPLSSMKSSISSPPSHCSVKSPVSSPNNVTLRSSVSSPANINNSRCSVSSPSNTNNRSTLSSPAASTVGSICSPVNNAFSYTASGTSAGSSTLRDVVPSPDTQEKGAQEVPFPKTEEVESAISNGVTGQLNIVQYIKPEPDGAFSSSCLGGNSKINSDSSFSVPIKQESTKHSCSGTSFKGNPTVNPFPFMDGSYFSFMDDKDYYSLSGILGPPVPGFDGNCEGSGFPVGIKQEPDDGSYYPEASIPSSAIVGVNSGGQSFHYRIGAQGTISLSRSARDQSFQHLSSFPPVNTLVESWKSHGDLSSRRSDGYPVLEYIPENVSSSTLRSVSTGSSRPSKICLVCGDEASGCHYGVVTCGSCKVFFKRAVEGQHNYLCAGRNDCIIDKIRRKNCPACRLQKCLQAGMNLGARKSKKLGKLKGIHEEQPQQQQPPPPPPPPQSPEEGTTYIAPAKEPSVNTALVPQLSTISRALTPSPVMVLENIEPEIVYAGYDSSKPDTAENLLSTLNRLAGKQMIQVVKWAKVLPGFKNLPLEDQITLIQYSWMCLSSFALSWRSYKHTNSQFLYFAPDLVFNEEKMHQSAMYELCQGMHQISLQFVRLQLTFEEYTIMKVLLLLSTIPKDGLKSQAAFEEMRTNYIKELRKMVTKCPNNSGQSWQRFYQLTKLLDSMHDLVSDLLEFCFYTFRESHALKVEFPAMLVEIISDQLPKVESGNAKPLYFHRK
Experimental: 3. Mineralocorticoid Receptor Agonist Activity Assay The mineralocorticoid receptor (MR) agonist activity of small-molecule steroids was tested using a PathHunter® NHR nuclear translocation assay. PathHunter NHR CHO-K1 cells were plated onto a 384-well white-wall microplate and co-incubated with test small-molecule steroids at 37° C. in 5% CO2 to induce reactions. Assay signals were generated using the PathHunter assay reagent mix. After one hour of incubation at room temperature, chemiluminescent signals were detected. The data were analyzed using four-parameter curve fitting to generate EC50 values.

[2] = system: GRE reporter gene in A549 cells; experiment: GRE reporter gene assay in A549 cells (MMTV-Luc); type: cell-based; conditions: 24 h; for EC50: Homo sapiens
Experimental: 4. GRE reporter gene assay A549 cells were plated (40,000 cells/96-well plate), transfected with pGL4.36 (MMTV-Luc, 100 ng/well) using lipo3000, cultured overnight and then incubated with different concentrations of small-molecule steroids. After 24 h, the expression of luciferase in the reporter gene system was detected using the Bright-Glo (promega) assay reagent.

[3] = system: mouse collagen antibody-induced arthritis (CAIA) model; experiment: Mouse collagen antibody-induced arthritis (CAIA) model; type: in vivo; conditions: 10 mg/kg intraperitoneally twice a week; FIG. 6
Experimental: Male balb/c mice, 6 w, purchased from the Laboratory Animal Management Department, Shanghai Institute of Planned Parenthood Research. Housing environment: SPF; production license SCXK (Shanghai) 2018-0006; Balb/c mouse certification number: 20180006023393.
Upon arrival, the test animals were acclimatized for 7 days and randomly grouped. On day 0, each group of mice was intraperitoneally injected with 1.5 mg/mouse of type II collagen antibody cocktail (purchased from Chondrex Inc.) for modeling except for the control group. On day 3, each group of mice was intraperitoneally injected with […] of LPS (100 μL) to boost the immune response except for the control group. Administration to each group of mice began on day 5, and limb arthritis was scored every 1-3 days. Mice were dosed according to the following administration regimens. The severity of arthritis in each group of mice was semi-quantitatively scored every 1-3 days and further, the anti-inflammatory activity of anti-TNF-ADCs was evaluated.

- IC50 (human recombinant GR): 6.69 nM
- EC50 [1]: 220 nM
Compound: C[C@]12C=CC(=O)C=C1CC[C@@H]1[C@@H]2[C@@H](O)C[C@@]2(C)[C@H]1C[C@H]1O[C@@H](c3ccc(C(=O)c4cccc(N)c4)cc3)O[C@]12C(=O)CO [Compound 2-A]

Compound: C[C@]12C=CC(=O)C=C1CC[C@@H]1[C@@H]2[C@@H](O)C[C@@]2(C)[C@H]1C[C@H]1O[C@@H](c3ccc(C(F)(F)c4cccc(N)c4)cc3)O[C@]12C(=O)CO [Compound 4-A]
- IC50 (human recombinant GR): 2.12 nM
- EC50 [1]: 260 nM
- GRE reporter gene Emax [2]: 1.69E6 RLU
- EC50 [2]: 2.16 nM

Compound: C[C@]12C=CC(=O)C=C1CC[C@@H]1[C@@H]2[C@@H](O)C[C@@]2(C)[C@H]1C[C@H]1O[C@@H](c3ccc(Cc4cccc5c(N)cccc45)cc3)O[C@]12C(=O)CO [Compound 3-A]
- IC50 (human recombinant GR): 2.24 nM
- EC50 [1]: 190 nM
- GRE reporter gene Emax [2]: 1.53E6 RLU
- EC50 [2]: 1.47 nM

Compound: C[C@]12C=CC(=O)C=C1CC[C@@H]1[C@@H]2[C@@H](O)C[C@@]2(C)[C@H]1C[C@H]1O[C@@H](c3ccc(Cc4cccc(N)c4)cc3)O[C@]12C(=O)CO [A-A, reference compound]
- GRE reporter gene Emax [2]: 1.45E6 RLU
- EC50 [2]: 0.6 nM

Compound: adalimumab [Humira]
- anti-inflammatory activity in the CAIA model [3]: weak anti-inflammatory activity

Compound: C[C@]12C=CC(=O)C=C1CC[C@H]1[C@@H]3C[C@H]4O[C@@H](c5ccc(C(=O)c6cccc(N)c6)cc5)O[C@@]4(C(=O)CO)[C@@]3(C)C[C@H](O)[C@@]12F [Compound 5-A]
- IC50 (human recombinant GR): 5.23 nM
- GRE reporter gene Emax [2]: 2.3E7 RLU
- EC50 [2]: 4.3 nM

Compound: C[C@]12C=CC(=O)C=C1CC[C@@H]1[C@@H]2[C@@H](O)C[C@@]2(C)[C@H]1C[C@H]1O[C@@H](c3ccc(-c4ccc(-c5cccc(N)c5)cc4)cc3)O[C@]12C(=O)CO [Compound 1-A]
- IC50 (human recombinant GR): 4.37 nM
- EC50 [1]: > 200000 nM
- GRE reporter gene Emax [2]: 7.67E5 RLU
- EC50 [2]: 22.6 nM
